Assay results as given in US20160045505A1, “COMPOUNDS AND COMPOSITIONS FOR THE TREATMENT OF PARASITIC DISEASES” (NOVARTIS AG, priority 2013, published 2016).
Like-named read-outs stand apart in the source and are kept apart here.

How the values were obtained:
[1] = test system: Leishmania donovani axenic amastigote parasites; test: Leishmania donovani axenic amastigote proliferation assay (Cell TiterGlo luminescence, 2 day incubation); type: cell-based; details: Leishmania donovani
[2] = test system: L. donovani HU3 strain in mouse peritoneal macrophages; test: Assay for proliferation of Leishmania parasites in infected mouse peritoneal macrophages (SybrGreen staining, high-content imaging, 5 days); type: cell-based, Leishmania donovani; details: Leishmania donovani, Peritoneal macrophage
[3] = test system: Trypanosoma cruzi amastigotes (Tulahuen strain expressing Lac-Z) cultured in 3T3 fibroblast cells; test: microbe, parasite or virus in culture; type: cell-based; details: Trypanosoma cruzi, TULAHUEN, Fibroblast
[4] = axenic amastigotes, inhibition of proliferation, read-out: L. donovani amastigotes EC50
[5] = L. donovani in mouse peritoneal macrophages, inhibition of proliferation, read-out: L. donovani Macrophage EC50
[6] = T. cruzi amastigotes in 3T3 fibroblast cells, inhibition of proliferation, read-out: T cruzi EC50

## CC(C)OC(=O)Nc1cnc2nc(-c3cc(NC(=O)c4ncc[nH]4)ccc3F)cn2c1 [Compound 92]
[1]; [4]
  EC50: > 25 µM
[2]; [5]
  EC50: > 28.9 µM
[3]; [6]
  EC50: > 20 µM

## Cc1cc(C(=O)Nc2ccc(F)c(-c3cn4cc(NC(=O)OC(C)C)cnc4n3)c2)n[nH]1 [Compound 77]
[1]; [4]
  EC50: 9.23 µM
[2]; [5]
  EC50: > 50 µM
[3]; [6]
  EC50: > 20 µM

## Cc1nc(C(=O)Nc2ccc(Cl)c(-c3cn4cc(NC(=O)OC(C)C)cnc4n3)c2)c[nH]1 [Compound 59]
[1]; [4]
  EC50: > 25 µM
[2]; [5]
  EC50: > 50 µM
[3]; [6]
  EC50: > 20 µM

## CC(C)OC(=O)Nc1cnc2nc(-c3cc(NC(=O)N4CC5(COC5)C4)ccc3F)cn2c1 [Compound 294]
[1]; [4]
  EC50: > 25 µM
[2]; [5]
  EC50: > 44.9 µM
[3]; [6]
  EC50: > 20 µM

## CC(C)OC(=O)Nc1cnc2nc(-c3cc(NC(=O)N4CCC(C)(C(=O)O)C4)ccc3Cl)cn2c1 (stereo not drawn) [Compound 280]
[1]; [4]
  EC50: > 25 µM
[2]; [5]
  EC50: > 42.1 µM
[3]; [6]
  EC50: > 20 µM

## Cc1nc(C)c(C(=O)Nc2ccc(F)c(-c3cn4cc(N5CCN(C)CC5)cnc4n3)c2)o1 [Compound 565, N-(4-fluoro-3-(6-(4-methylpiperazin-1-yl)imidazo[1,2-a]pyrimidin-2-yl)phenyl)-2,4-dimethyloxazole-5-carboxamide]
[1]; read-out: L. donovani amastigotes EC50 (μM)
  EC50: 12.3 µM
[2]; read-out: L. donovani Macrophage EC50 (μM)
  EC50: 6.27 µM
[3]; read-out: T cruzi EC50 (μM)
  EC50: 11.2 µM

## CC(C)OC(=O)Nc1cnc2nc(-c3cc(NC(=O)c4cnc(Cl)s4)ccc3Cl)cn2c1 [Compound 51]
[1]; [4]
  EC50: 3.8 µM
[2]; [5]
  EC50: 9.33 µM
[3]; [6]
  EC50: 1.49 µM

## CC(C)OC(=O)Nc1cnc2nc(-c3cc(NC(=O)c4ccc(F)s4)ccc3F)cn2c1 [Compound 67]
[1]; [4]
  EC50: 0.677 µM
[2]; [5]
  EC50: 1.13 µM
[3]; [6]
  EC50: 0.136 µM

## CC(C)OC(=O)Nc1cnc2nc(-c3cccc(NC(=O)c4ccc(F)o4)c3)cn2c1 [Compound 3, propan-2-yl N-{2-[3-(5-fluorofuran-2-amido)phenyl]imidazo[1,2-a]pyrimidin-6-yl}carbamate]
[1]; [4]
  EC50: 0.24 µM
[2]; [5]
  EC50: 0.43 µM
[3]; [6]
  EC50: 0.51 µM

## CC(C)OC(=O)Nc1cnc2nc(-c3cc(NC(=O)N4CCC(NC(=O)OC(C)(C)C)C4)ccc3Cl)cn2c1 (stereo not drawn) [Compound 268]
[1]; [4]
  EC50: > 25 µM
[2]; [5]
  EC50: 14.5 µM
[3]; [6]
  EC50: 10.6 µM

## O=C(Nc1ccc(F)c(-c2cn3cc(-c4ccc(CCN5CCOCC5)cc4)cnc3n2)c1)N1CCCC1 [Compound 352]
[1]; [4]
  EC50: 0.215 µM
[2]; [5]
  EC50: 0.061 µM
[3]; [6]
  EC50: 0.018 µM

## O=C(Nc1ccc(F)c(-c2cn3cc(C4=CCOCC4)cnc3n2)c1)N1CCCC1 [Compound 353]
[1]; [4]
  EC50: 0.051 µM
[2]; [5]
  EC50: 0.112 µM
[3]; [6]
  EC50: 0.053 µM

## Cc1nc(C)c(C(=O)Nc2ccc(F)c(-c3cn4cc(N5CCC5)cnc4n3)c2)o1 [Compound 559]
[1]; L. donovani axenic amastigotes, read-out: L. donovani amastigotes EC50
  EC50: > 25 µM
[2]; L. donovani in mouse peritoneal macrophages, read-out: L. donovani Macrophage EC50
  EC50: > 50 µM
[3]; T. cruzi amastigotes in 3T3 fibroblast cells, read-out: T cruzi EC50
  EC50: > 20 µM

## CC(C)NC(=O)Nc1ccc(Cl)c(-c2cn3cc(NC(=O)OC(C)C)cnc3n2)c1 [Compound 277]
[1]; [4]
  EC50: 6.88 µM
[2]; [5]
  EC50: 10.7 µM
[3]; [6]
  EC50: 3.9 µM

## Cc1nc(C)c(C(=O)Nc2ccc(F)c(-c3cn4cc(-c5ccccc5)cnc4n3)c2)o1 [Compound 333]
[1]; [4]
  EC50: 0.088 µM
[2]; [5]
  EC50: 0.087 µM
[3]; [6]
  EC50: 0.016 µM

## CC(=O)OC(C)C(=O)Nc1ccc(Cl)c(-c2cn3cc(NC(=O)OC(C)C)cnc3n2)c1 (stereo not drawn) [Compound 56]
[1]; [4]
  EC50: 19.2 µM
[2]; [5]
  EC50: > 50 µM
[3]; [6]
  EC50: 11.5 µM

## CN(CC(F)(F)F)C(=O)Nc1ccc(F)c(-c2cn3cc(C4=CCOCC4)cnc3n2)c1 [Compound 326]
[1]; [4]
  EC50: 0.158 µM
[2]; [5]
  EC50: 0.496 µM
[3]; [6]
  EC50: 0.123 µM
